Assay results reported in PubChem BioAssay (NCI).
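The compound was tested at five concentrations on cells cultured in 96-well plates, with a 48-hour exposure period. TGI: total growth inhibition.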

What was measured:
Assay in all cases: DTP human tumour cell line panel, 48 h
[1] = tested on: MDA-N
[2] = tested on: M14 melanoma
[3] = tested on: UO-31 renal
[4] = tested on: SK-MEL-5 melanoma
[5] = tested on: HT29 colon
[6] = tested on: NCI-H460 lung
[7] = tested on: OVCAR-4 ovarian
[8] = tested on: HS 578T breast
[9] = tested on: LOX IMVI melanoma
[10] = tested on: KM12 colon
[11] = tested on: SK-MEL-2 melanoma
[12] = tested on: NCI/ADR-RES ovarian
[13] = tested on: SNB-75 CNS
[14] = tested on: SF-539 CNS
[15] = tested on: HCT-116 colon
[16] = tested on: MDA-MB-231 breast
[17] = tested on: SW-620 colon
[18] = tested on: T-47D breast
[19] = tested on: K-562 leukemia

Compound | TGI [1] [µM] | TGI [2] [µM] | TGI [3] [µM] | TGI [4] [µM] | TGI [5] [µM] | TGI [6] [µM] | TGI [7] [µM] | TGI [8] [µM] | TGI [9] [µM] | TGI [10] [µM] | TGI [11] [µM] | TGI [12] [µM] | TGI [13] [µM] | TGI [14] [µM] | TGI [15] [µM] | TGI [16] [µM] | TGI [17] [µM] | TGI [18] [µM] | TGI [19] [µM]
CC[C@@]1(O)C(=O)OCc2c1cc1n(c2=O)Cc2c-1nc1ccccc1c2/C=N\NC(=O)C(C)N (some centres not stated) | > 100 | 5.05 | 2.12 | 1.78 | > 47.1 | 4.47 | > 100 | > 100 | 0.229 | > 100 | > 100 | 4.26 | 4.33 | < 0.0282 | 23.6 | > 100 | > 100 | – | –
Cc1nc(C)c(N2CCN(C#N)CC2)c(=O)[nH]1 | > 100 | > 100 | > 100 | > 100 | > 100 | > 100 | > 100 | > 100 | > 100 | > 100 | – | > 100 | > 100 | > 100 | > 100 | > 100 | > 100 | > 100 | > 100
CCOP(=O)(OCC)/C(C#N)=C/c1c(C)[nH]c2ccccc12 | > 100 | > 100 | 47.8 | > 100 | > 100 | > 100 | > 100 | > 100 | > 100 | > 100 | – | > 100 | > 100 | > 100 | > 100 | > 100 | > 100 | > 100 | > 100
CCOC(=O)c1cc(-c2ccc(Cl)cc2)c([N+](=O)[O-])n1C | > 10 | > 10 | > 10 | – | > 10 | > 10 | > 10 | > 10 | – | > 10 | > 10 | – | – | > 10 | > 10 | 5.8 | – | 6.45 | > 10
Cc1nc2c(ncn2CCO)c(=O)[nH]1 | > 100 | > 100 | – | > 100 | > 100 | > 100 | > 100 | > 100 | > 100 | > 100 | – | > 100 | > 100 | > 100 | > 100 | > 100 | > 100 | > 100 | > 100
CN(C(=O)c1cccs1)C(=S)N1CCN(c2ccccc2)CC1 | > 100 | > 100 | > 100 | > 100 | > 100 | > 100 | > 100 | > 100 | > 100 | > 100 | > 100 | – | > 100 | – | – | > 100 | > 100 | > 100 | > 100
CC1(C)OC(=S)N(c2ccccc2)C12C=Cc1cc3ccccc3cc1O2 (configuration not stated) | > 100 | > 100 | > 100 | > 100 | > 100 | > 100 | > 100 | > 100 | > 100 | > 100 | > 100 | > 100 | > 100 | – | > 100 | > 100 | > 100 | > 100 | > 100
O=C1C[C@H]2[C@H](c3ccc(Br)cc3)[C@H]3C(=O)c4ccccc4NC(=O)[C@@H]3[C@@]2(O)c2ccccc2N1 | 55 | 29 | – | 62 | 30.8 | > 100 | > 100 | > 100 | 37.1 | 43.8 | – | 61.9 | 41.1 | 54.7 | 33.1 | 36.1 | > 100 | – | 48.9
O=C1O[C@H]2[C@@H]3OC(=O)c4cc(O)c(O)c(O)c4-c4c(cc(O)c(O)c4O)C(=O)OC[C@H]2O[C@@H](OC(=O)c2cc(O)c(O)c(O)c2)[C@@H]3OC(=O)c2cc(O)c(O)c3c2[C@@H]2C1=CC(=O)C(O)(O)C2(O)O3 (some centres not stated) | 34.6 | > 100 | > 100 | > 100 | 34.2 | > 100 | 39.4 | > 100 | 26.1 | 80.1 | > 100 | > 100 | 86.4 | – | 32 | 40.2 | 38.5 | 90.7 | 94.5
CC(=O)Nc1ccc(-c2nc3ccccc3s2)cc1O | > 100 | > 100 | > 100 | 62.8 | > 100 | > 100 | > 100 | > 100 | > 100 | 73 | > 100 | 64.4 | > 100 | – | > 100 | > 100 | > 100 | > 100 | > 100
C[C@]12CCC(=O)C=C1CC[C@@H]1C2CC[C@]2(C)Nc3c(ncn3-c3ccc(F)cc3)CC12 (some centres not stated) | 42.8 | > 100 | > 100 | 29.7 | > 100 | 57.4 | > 100 | 71 | – | 85.9 | – | – | 77.4 | 34.3 | 32.8 | > 100 | > 100 | 88.7 | 69
CN(C)/C=N/S(=O)(=O)c1nn2c(C=O)c(-c3ccc(-c4ccc([N+](=O)[O-])cc4)o3)nc2s1 | 2.7 | – | 5.99 | 16.3 | 2.19 | 8.42 | > 39.3 | > 21.8 | > 25 | > 49.1 | 25.9 | > 96.6 | 36.6 | 11.8 | 3.68 | 20 | > 23.5 | > 44.6 | –
c1ccc2c(c1)C(=Nc1ccc(N=C3c4ccccc4-c4ccccc43)cc1)c1ccccc1-2 | > 100 | > 100 | > 100 | > 100 | > 100 | > 100 | > 100 | > 100 | > 100 | > 100 | > 100 | > 100 | – | – | > 100 | > 100 | > 100 | > 100 | > 100
COC1(C)C=NCC(C)(C)NC(=O)C(C)(OC)C=NCC(C)(C)NC1=O (configuration not stated) | > 10 | > 10 | – | > 10 | > 10 | – | > 10 | > 10 | – | > 10 | – | > 10 | > 10 | > 10 | > 10 | > 10 | > 10 | > 10 | > 10
CC1(C)CC[C@]2(C(=O)O)CC[C@]3(C)C(=CC[C@@H]4[C@@]5(C)CC[C@H](OC6OC(CO)C(O)C(O)C6OC6OC(CO)C(O)C(O)C6O)C(C)(C)[C@@H]5CC[C@]43C)[C@@H]2C1 (some centres not stated) | 34.8 | 31.2 | 35.8 | 33.7 | 30.2 | 41.5 | 30.5 | 51.9 | 82.4 | 29.4 | 2.48 | 49.2 | 36.3 | – | 31.9 | 51.9 | 48.3 | 44.8 | 44.6
CN1CCN(c2ccc(-n3cc(C(=O)O)c(=O)c4cc(F)c(N5CCN(C)CC5)cc43)nc2)CC1 | > 100 | > 100 | > 100 | – | > 100 | > 100 | > 100 | > 100 | > 100 | > 100 | – | > 100 | > 100 | > 100 | > 100 | > 100 | > 100 | > 100 | > 100
Cn1cnc([N+](=O)[O-])c1Sc1nc(N)nc2c1ncn2Cc1ccccc1 | 44.9 | 69 | 34.2 | 41.2 | 67.8 | 34.7 | > 100 | 86.5 | 65.4 | > 100 | 40.4 | > 100 | > 100 | – | 42.1 | 41.3 | 78.2 | 40.9 | > 100
CC(=O)OCc1cn(S(=O)(=O)c2ccc(C)cc2)cn1 | 52.6 | > 100 | > 100 | > 100 | > 100 | > 100 | > 100 | > 100 | > 100 | – | – | > 100 | > 100 | > 100 | > 100 | > 100 | > 100 | > 100 | > 100
COc1cc(OC)nc(Nc2c(C#N)c3nc4ccccc4n3c3ccccc23)n1 | > 100 | > 100 | > 100 | > 100 | > 100 | > 100 | 78.7 | > 100 | > 100 | > 100 | 71.1 | > 100 | 37.6 | 35.1 | > 100 | – | > 100 | > 100 | > 100
Cc1nn(C)c2c1C(=O)N(C)CC(=O)N2C | > 100 | > 100 | > 100 | > 100 | > 100 | > 100 | > 100 | > 100 | – | > 100 | – | – | > 100 | > 100 | > 100 | – | > 100 | – | > 100
